The text below walks through data of ChEMBL document CHEMBL1795230, “Conformational variability of different sulfonamide inhibitors with thienyl-acetamido moieties attributes to differential binding in the active site of cytosolic human carbonic anhydrase isoforms” (Bioorg Med Chem, 2011).

Molecules are shown by their SMILES.

Assay [1] addresses Carbonic anhydrase 3 (Homo sapiens, UniProt P07451).
The target of assay [2] is Carbonic anhydrase 13 (Homo sapiens, UniProt Q8N1Q1).
Carbonic anhydrase 13, sequence (Q8N1Q1 whole entry): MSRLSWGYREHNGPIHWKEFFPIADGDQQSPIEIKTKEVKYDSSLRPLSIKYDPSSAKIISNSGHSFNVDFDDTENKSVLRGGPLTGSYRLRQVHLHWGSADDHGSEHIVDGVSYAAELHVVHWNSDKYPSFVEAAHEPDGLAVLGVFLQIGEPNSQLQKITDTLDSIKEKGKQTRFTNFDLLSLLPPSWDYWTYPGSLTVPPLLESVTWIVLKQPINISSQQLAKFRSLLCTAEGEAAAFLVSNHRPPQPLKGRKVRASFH

Carbonic anhydrase 3, sequence (P07451 whole entry): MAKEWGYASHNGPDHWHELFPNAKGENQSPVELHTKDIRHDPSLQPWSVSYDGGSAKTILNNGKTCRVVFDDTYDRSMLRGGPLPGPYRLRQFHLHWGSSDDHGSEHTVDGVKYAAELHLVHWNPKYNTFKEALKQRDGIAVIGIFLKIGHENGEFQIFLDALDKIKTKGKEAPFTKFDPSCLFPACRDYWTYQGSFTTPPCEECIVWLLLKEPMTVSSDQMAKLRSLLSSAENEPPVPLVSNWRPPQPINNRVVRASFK

For the molecule `NS(=O)(=O)c1ccc(NC(=O)Cc2cccs2)cc1`, the inhibitory constant (Ki) (commonly the dissociation constant of the complex between target and ligand, obtained from inhibition or displacement) in assay [1] is 800000 nM; in assay [2], 125 nM.
As for `NS(=O)(=O)c1cc(Cl)c(Cl)c(S(N)(=O)=O)c1` [DICHLORPHENAMIDE], the inhibitory constant (Ki) in assay [2] came out at 23 nM.
